Data reported in US20060004012A1, “Compounds, pharmaceutical compositions and methods for use in treating metabolic disorders” (priority 2004, published 2006).

Target: T1, human GPR40 (Homo sapiens, UniProt O14842)
T1 construct: expressed in transfected cells; host or cells: CHO cells, transiently transfected with Lipofectamine 2000 and co-transfected with an aequorin expression vector (Euroscreen)
Test: Cell-based aequorin assay using human GPR40
Conditions: activation of human GPR40; CHO cells transfected with GPR40 and aequorin expression vectors; aequorin luminescence, area-under-curve 2-20 seconds; read-out: Relative EC50
Description: A cell-based aequorin assay may be employed to characterize the modulatory activity of compounds on the GPR40 signaling pathway. In an exemplary assay, CHO cells are transfected in a 15 cm plated containing 14 million cells with 5 μg of GPR40 expression vector and 5 μg of Aequorin expression vector (Euroscreen) using Lipofectamine 2000 (Invitrogen). After 17-24 hours post-transfection, cells are washed with phosphate buffered saline (PBS) and detached from the tissue culture dish with 2 mL of trypsin (0.25%(w/v)). Trypsinization is halted with 28 mL of Hanks Buffered Salt Solution containing 20 mM Hepes (H/HBSS) and 0.01% fatty acid-free bovine serum albumin (BSA) or 0.625% fatty acid-free human serum albumin (HSA). Coelantrazine is added to 1 ug/mL and the cells are incubated for 2 hours at room temperature. Cells are gently mixed every 15 minutes. Compounds are dissolved in dimethyl sulfoxide for preparation of 10 mM stock solutions. Compounds are diluted in H/HBSS containing either 0.01% BSA or 0.625% HSA. Serial dilutions of the test compounds are prepared to determine dose response.
Aequorin luminescence measurements are made using an EG&G Berthold 96-well luminometer and the response is measured over a 20 second interval after cells and compounds were mixed. The area-under-curve from 2-20 seconds is plotted to determine dose reponse. The EC50 (effective concentration to reach 50% maximal response) is determined from the dose response plot. […]

T1 sequence (O14842 whole entry): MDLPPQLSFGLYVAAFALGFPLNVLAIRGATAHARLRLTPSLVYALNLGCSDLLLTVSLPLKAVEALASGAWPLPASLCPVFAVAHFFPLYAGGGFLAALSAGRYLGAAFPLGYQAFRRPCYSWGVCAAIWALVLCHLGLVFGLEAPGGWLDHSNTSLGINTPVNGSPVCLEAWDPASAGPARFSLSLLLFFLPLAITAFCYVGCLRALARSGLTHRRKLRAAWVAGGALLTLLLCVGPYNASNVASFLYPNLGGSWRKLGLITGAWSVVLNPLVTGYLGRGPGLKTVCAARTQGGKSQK

EC50 [nM] | Compound
10 to 100 | CC#CC(CC(=O)O)c1ccc(OCc2nn(-c3ccccc3)nc2C)cc1 (stereo not shown) [Compound 26, 3-[4-(5-Methyl-2-phenyl-2H-[1,2,3]triazol-4-ylmethoxy)-phenyl]-hex-4-ynoic acid]
100 to 1000 | CC#CC(CC(=O)O)c1ccc(OCc2noc(-c3ccc(C(F)(F)F)cc3)n2)cc1 (stereo not shown) [Compound 27.1]
100 to 1000 | CC#CC(CC(=O)O)c1ccc(SCc2ccccc2C)cc1 (stereo not shown) [Compound 28, 3-[4-(2-Methyl-benzylsulfanyl)-phenyl]-hex-4-ynoic acid]
1000 to 10000 | C=CCC(CC(=O)O)c1ccc(OCc2ccc(OC)cc2)cc1 (stereo not shown) [Compound 34.4]
100 to 1000 | COc1ccc(COc2ccc(C(C=C(C)C)CC(=O)O)cc2)cc1 (stereo not shown) [Compound 34.5]
100 to 1000 | CC#CC(CC(=O)O)c1ccc(NCc2cccc(OC)c2)cc1 (stereo not shown) [Compound 36.1]
100 to 1000 | CC#CC(CC(=O)O)c1ccc(N(Cc2cccc(OC)c2)Cc2cccc(OC)c2)cc1 (stereo not shown) [Compound 36.2]
10 to 100 | CC#C[C@@H](CC(=O)O)c1ccc(OCc2ccc(OC)cc2)cc1 [Compound 39.7, (3S)-3-[4-(4-Methoxy-benzyloxy)-phenyl]-hex-4-ynoic acid]
1000 to 10000 | CC#C[C@H](CC(=O)O)c1ccc(OCc2ccc(OC)cc2)cc1 [Compound 40.5, (3R)-3-[4-(4-Methoxy-benzyloxy)-phenyl]-hex-4-ynoic acid]
100 to 1000 | C#CC(CC(=O)O)c1ccc(OCc2ccc(OC)cc2)cc1 (stereo not shown) [Compound 41]
100 to 1000 | O=C(O)CC(c1ccc(F)cc1)c1ccc(OCc2cccc(-c3ccc(C(F)(F)F)cc3)c2)cc1 (stereo not shown) [Compound 46.1, 3-(4-fluorophenyl)-3-[4-(4′-trifluoromethyl-biphenyl-3-ylmethoxy)-phenyl]-propionic acid]
100 to 1000 | O=C(O)CC(c1ccc(OCc2cccc(-c3ccc(C(F)(F)F)cc3)c2)cc1)c1nccs1 (stereo not shown) [Compound 56]
10 to 100 | O=C(O)CC(c1ccc(OCc2cccc(-c3ccc(C(F)(F)F)cc3)c2)cc1)n1cccn1 (stereo not shown) [Compound 62.3]
100 to 1000 | CCCCOc1ccc(C)cc1-c1ccc(COc2ccc(C(CC(=O)O)c3ccnn3C)cc2)cc1 (stereo not shown) [Compound 66.5]
1000 to 10000 | Cc1cnc(C(CC(=O)O)c2ccc(OCc3cccc(-c4ccc(C(F)(F)F)cc4)c3)cc2)s1 (stereo not shown) [Compound 70.1]
100 to 1000 | O=C(O)CC(c1ccc(OCc2cccc(-c3ccc(C(F)(F)F)cc3)c2)cc1)c1cccnc1 (stereo not shown) [Compound 70.2]
100 to 1000 | Cc1ccccc1COc1ccc(C(C#CC(C)C)CC(=O)O)cc1 (stereo not shown) [Compound 71]
100 to 1000 | Cc1ccccc1COc1ccc(C(C#CC2CC2)CC(=O)O)cc1 (stereo not shown) [Compound 72]
1000 to 10000 | CC#CC(CC(=O)O)c1ccc(N(C)Cc2cccc(OC)c2)cc1 (stereo not shown) [Compound 73]
1000 to 10000 | CC#CC(CC(=O)O)c1ccc(NC(=O)c2cccc(OC)c2)cc1 (stereo not shown) [Compound 74]
> 10000 | Cc1ccccc1COc1ccc(C(C#CC(F)(F)F)CC(=O)O)cc1 (stereo not shown) [Compound 75]
1000 to 10000 | CC#CC(CC(=O)O)c1ccc(OCc2cn(-c3ccc(Cl)cc3)nn2)cc1 (stereo not shown) [Compound 76]
100 to 1000 | CC#CC(CC(=O)O)c1ccc(OCc2cc(-c3ccccc3)no2)cc1 (stereo not shown) [Compound 77]
1000 to 10000 | CC#CC(CC(=O)O)c1ccc(OCc2ccc(-c3nc4ccccc4[nH]3)cc2)cc1 (stereo not shown) [Compound 78]
1000 to 10000 | CC#CC(CC(=O)O)c1ccc(OCc2ccc(-n3cncn3)cc2)cc1 (stereo not shown) [Compound 79]
< 10 | CC#C[C@@H](CC(=O)O)c1ccc(OCc2csc(-c3ccc(C(F)(F)F)cc3)n2)cc1 [Compound 80]
1000 to 10000 | CC#CC(CC(=O)NS(C)(=O)=O)c1ccc(OCc2ccc(OC)cc2)cc1 (stereo not shown) [Compound 81]

EC50 [nM] | Compound
< 10 | COc1cccc(CN(Cc2cccc(OC)c2)c2ccc(N(CC(=O)O)c3ccccc3)cc2)c1 [Compound 82.1]
< 10 | COc1cccc(CNc2ccc(N(CC(=O)O)c3ccccc3)cc2)c1 [Compound 82.2]
< 10 | O=C(O)CN(c1ccccc1)c1ccc(NCc2cccc(Oc3ccccc3)c2)cc1 [Compound 82.3]
10 to 100 | O=C(O)CN(c1ccccc1)c1ccc(NC(=O)Cc2ccccc2)cc1 [Compound 82.4]
< 10 | O=C(O)CN(c1ccccc1)c1ccc(NC(=O)CCc2ccccc2)cc1 [Compound 82.5]
< 10 | COc1cccc(/C=C/C(=O)Nc2ccc(N(CC(=O)O)c3ccccc3)cc2)c1 [Compound 82.6]
1000 to 10000 | CC(=O)N[C@@H](CC(=O)O)c1ccc(OCc2cccc(Oc3ccc(F)cc3)c2)cc1 [Compound 83]
10 to 100 | O=C(O)CC(c1ccccc1)c1ccc(OCc2cccc(Oc3ccccc3)c2)cc1 (stereo not shown) [Compound 84.1]
100 to 1000 | Cc1ccccc1C(CC(=O)O)c1ccc(OCc2cccc(Oc3ccccc3)c2)cc1 (stereo not shown) [Compound 84.4]
100 to 1000 | O=C(O)CC(c1ccc(Cl)cc1)c1ccc(OCc2cccc(Oc3ccccc3)c2)cc1 (stereo not shown) [Compound 84.5]
100 to 1000 | O=C(O)CC(c1ccc(OCc2cccc(Oc3ccccc3)c2)cc1)c1cccc(Cl)c1 (stereo not shown) [Compound 84.6]
100 to 1000 | COc1ccc(C(CC(=O)O)c2ccc(OCc3cccc(Oc4ccccc4)c3)cc2)cc1 (stereo not shown) [Compound 84.7]
100 to 1000 | COc1cccc(C(CC(=O)O)c2ccc(OCc3cccc(Oc4ccccc4)c3)cc2)c1 (stereo not shown) [Compound 84.8]
1000 to 10000 | O=C(O)CC(c1ccc(OCc2cccc(Oc3ccccc3)c2)cc1)c1ccc(C(F)(F)F)cc1 (stereo not shown) [Compound 85.1]
100 to 1000 | O=C(O)CC(c1ccc(OCc2cccc(Oc3ccccc3)c2)cc1)c1cccc(C(F)(F)F)c1 (stereo not shown) [Compound 85.2]
< 10 | CC#C[C@@H](CC(=O)O)c1ccc(OCc2nc(-c3ccc(C(F)(F)F)cc3)oc2C)cc1 [Compound 86]
> 10000 | Cc1ccccc1COc1ccc(C(C#CC(F)(F)F)CC(=O)O)cc1 (stereo not shown) [Compound 87]
> 10000 | CC(C)CN(CC(C)C)[C@@H](CC(=O)O)c1ccc(OCc2cccc(Oc3ccc(F)cc3)c2)cc1 [Compound 88.1]
> 10000 | CCC(=O)N[C@@H](CC(=O)O)c1ccc(OCc2cccc(Oc3ccc(F)cc3)c2)cc1 [Compound 88.2]
> 10000 | O=C(O)C[C@H](NC(=O)c1ccccc1)c1ccc(OCc2cccc(Oc3ccc(F)cc3)c2)cc1 [Compound 88.3]
> 10000 | O=C(O)C[C@H](NC(=O)Cc1ccccc1)c1ccc(OCc2cccc(Oc3ccc(F)cc3)c2)cc1 [Compound 88.4]
> 10000 | O=C(O)C[C@H](NC(=O)/C=C/c1ccccc1)c1ccc(OCc2cccc(Oc3ccc(F)cc3)c2)cc1 [Compound 88.5]
> 10000 | O=C(O)C[C@H](NC(=O)CCc1ccccc1)c1ccc(OCc2cccc(Oc3ccc(F)cc3)c2)cc1 [Compound 88.6]
1000 to 10000 | O=C(O)CC(c1ccc(OCc2cccc(-c3ccc(C(F)(F)F)cc3)c2)cc1)c1nn[nH]n1 (stereo not shown) [Compound 88.7]
1000 to 10000 | O=C(O)CC1(c2ccc(OCc3cccc(-c4ccc(C(F)(F)F)cc4)c3)cc2)CC1 [Compound 89]
1000 to 10000 | NC(=O)C(CC(=O)O)c1ccc(OCc2cccc(-c3ccc(C(F)(F)F)cc3)c2)cc1 (stereo not shown) [Compound 90]
1000 to 10000 | OC(O)CC(c1ccc(OCc2cccc(-c3ccc(C(F)(F)F)cc3)c2)cc1)C1CC1 (stereo not shown) [Compound 91]

Compound | EC50 [nM]
CC(C)(C)OC(=O)N[C@@H](CC(=O)O)c1ccc(OCc2cccc(Oc3ccc(F)cc3)c2)cc1 [Compound 42.11, (S)-3-tert-Butoxycarbonylamino-3-{4-[3-(4-fluoro-phenoxy)-benzyloxy]-phenyl}-propionic acid] | 100 to 1000
